According to patent US20250215014A1, “KINASE INHIBITORS, PREPARATION METHODS AND USES THEREOF” (InventisBio Co., Ltd., priority 2022, published 2025):

Legend:
DGKa = DGKa (Homo sapiens (Human), UniProt P23743); assay: DGK ADP-Glo Kinase Assay (DGKa); format: biochemical; conditions: 10 nM DGKa, 15 uM ATP
Method: (§1) Luminescence was recorded using an Tecan SPARK microplate reader.

DGKz = DGKz (Homo sapiens (Human), UniProt Q13574); assay: DGK ADP-Glo Kinase Assay (DGKz); format: biochemical; conditions: 5 nM DGKz, 15 uM ATP
Method: as §1

Jurkat cells = assay: Jurkat IL-2 Assay; format: cell-based; conditions: Homo sapiens, anti-CD3/CD28 antibody, IL-2 level
Method: Jurkat cells (ATCC) were cultured in RPMI-1640 medium supplemented with 10% FBS. In a 96-well plate, 250,000 cells in 130 uL were added to each assay well. Ten microliter compound solution (5 uM to 2.3 nM, 8 points with 3-fold dilution) were added to cells in each well and incubated for 60 minutes at 37° C. Then 10 uL anti-CD3/CD28 antibody (Catalog #10991, Stemcell) were added and incubated overnight at 37° C. After the incubation, 16 uL supernatants were transferred into a new 384-well white assay plate for cytokine analysis. IL-2 was quantified using Human IL-2 kit (Catalog #62HIL02PEG, Cisbio) as described in the manufacturer manual.
X is log of compound concentration, Y is the IL-2 concentration, increasing as X increases.

Sequence of DGKa (P23743 whole entry): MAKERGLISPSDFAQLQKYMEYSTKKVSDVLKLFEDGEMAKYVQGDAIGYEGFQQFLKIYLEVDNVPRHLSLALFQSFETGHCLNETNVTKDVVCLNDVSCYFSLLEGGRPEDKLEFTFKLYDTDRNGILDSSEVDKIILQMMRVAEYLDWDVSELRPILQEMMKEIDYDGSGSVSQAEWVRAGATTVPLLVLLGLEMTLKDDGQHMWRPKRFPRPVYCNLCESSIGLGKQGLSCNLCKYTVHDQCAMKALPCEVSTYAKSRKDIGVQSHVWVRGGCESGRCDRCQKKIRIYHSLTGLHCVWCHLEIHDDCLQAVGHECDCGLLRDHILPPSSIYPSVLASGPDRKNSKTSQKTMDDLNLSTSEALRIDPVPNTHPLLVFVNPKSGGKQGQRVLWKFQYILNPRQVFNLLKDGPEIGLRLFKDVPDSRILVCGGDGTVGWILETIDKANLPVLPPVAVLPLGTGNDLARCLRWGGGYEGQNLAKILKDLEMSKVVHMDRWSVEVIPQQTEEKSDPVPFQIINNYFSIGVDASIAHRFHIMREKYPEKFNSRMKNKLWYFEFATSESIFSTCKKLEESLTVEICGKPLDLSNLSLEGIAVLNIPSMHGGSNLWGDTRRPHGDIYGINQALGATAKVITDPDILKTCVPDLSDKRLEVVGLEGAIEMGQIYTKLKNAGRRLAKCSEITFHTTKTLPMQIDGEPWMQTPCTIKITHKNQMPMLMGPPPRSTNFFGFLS
Sequence of DGKz (Q13574 whole entry): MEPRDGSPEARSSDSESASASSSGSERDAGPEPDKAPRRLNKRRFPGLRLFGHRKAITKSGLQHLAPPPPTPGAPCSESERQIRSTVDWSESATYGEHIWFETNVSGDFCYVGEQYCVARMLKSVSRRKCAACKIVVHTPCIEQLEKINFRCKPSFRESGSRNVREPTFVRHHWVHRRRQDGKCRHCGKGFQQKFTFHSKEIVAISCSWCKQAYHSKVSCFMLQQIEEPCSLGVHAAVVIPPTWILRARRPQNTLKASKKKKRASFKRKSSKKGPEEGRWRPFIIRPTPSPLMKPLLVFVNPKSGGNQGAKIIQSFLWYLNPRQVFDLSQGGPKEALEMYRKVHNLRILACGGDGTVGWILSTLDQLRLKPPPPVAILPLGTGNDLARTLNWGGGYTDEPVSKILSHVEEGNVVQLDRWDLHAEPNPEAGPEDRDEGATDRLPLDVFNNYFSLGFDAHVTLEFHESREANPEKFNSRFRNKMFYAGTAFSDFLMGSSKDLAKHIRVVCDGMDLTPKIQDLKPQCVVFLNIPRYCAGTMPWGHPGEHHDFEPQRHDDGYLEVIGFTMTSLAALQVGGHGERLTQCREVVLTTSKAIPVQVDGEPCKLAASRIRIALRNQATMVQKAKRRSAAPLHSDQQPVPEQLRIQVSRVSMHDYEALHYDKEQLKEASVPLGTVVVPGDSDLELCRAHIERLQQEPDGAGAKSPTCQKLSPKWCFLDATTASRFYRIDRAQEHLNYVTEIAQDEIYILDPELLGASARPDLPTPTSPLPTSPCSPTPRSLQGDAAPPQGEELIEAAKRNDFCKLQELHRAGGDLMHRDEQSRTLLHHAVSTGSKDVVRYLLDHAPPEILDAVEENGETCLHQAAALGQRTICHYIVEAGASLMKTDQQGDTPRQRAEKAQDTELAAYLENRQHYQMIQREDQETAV

IC50 (DGKa): 0.1 to 1 µM
IC50 (DGKz): < 0.1 µM
EC50 (Jurkat cells): 0.5 to 1 µM
SMILES: CC[C@H]1CN([C@@H]2CCCCc3cc(C(F)(F)F)ccc32)[C@H](CC)CN1c1nc(=O)n(C)c2ccc(C#N)nc12 [Compound 45]
